Experiments:
LAMP1 = LAMP1 immunoblot in primary cortical astrocyte cultures; format: cell-based, mouse; conditions: astrocytes from WT and Cln3^Δex7-8 mice, 100 mM trehalose 4 days
Procedure: Astrocytes were isolated from P0-1 mice and plated on poly-D-lysine coated six-well plates (BD Biosciences) in the presence of DMEM high glucose, supplemented with 10% FBS and 100 U/ml penicillin and […] streptomycin. After 7 days, the glial cell layer was removed and astrocytes were plated for treatment. An amount of 100 mM of trehalose was dissolved in the media the day after and kept for 4 days. Finally, astrocytes were collected and protein extracts were analysed by western blot assay.
Brain tissue and cultured cells were collected and lysed in RIPA buffer (50 mM Tris-HCl, ph 7.4, 1% NP40, 0.5% Na-deoxycholate, 0.1% SDS, 150 mM NaCl, 2 mM EDTA and 50 mM NaF) including a cocktail of protease (Roche) and phosphatase (SIGMA) inhibitors. Protein concentrations were measured with the bicinchoninic acid protein assay kit (Pierce, Rockford, Ill.), using bovine serum albumin as standard. Lysates were separated via SDS-polyacrylamide gel electrophoresis (PAGE) and then transferred to nitrocellulose membranes. Blots were incubated in blocking buffer (5%, w/v, dried skimmed milk in Tris-buffered saline, pH 7.4 and 0.2% Tween 20, TBST) followed by overnight incubation with appropriate antibodies diluted in blocking buffer (5% dry milk). Western blot images were acquired by LAS 4000 (GE Healthcare) and quantified using ImageJ. Images have been cropped for presentation.

[1] = cited from earlier work
Cln3^Δex7-8 mice = assay: Storage burden (autofluorescent storage material, confocal thresholding); format: in vivo, mouse; conditions: S1BF and VPM/VPL, 7- and 12-month-old Cln3^Δex7-8 mice
Procedure: To analyse the relative level of the autofluorescent storage material present in each brain region, mouse brain sections spanning the S1BF and VPM/VPL were mounted onto gelatin-chrome-coated slides and cover-slipped with Vectashield (Vector Laboratories, Peterborough, UK). Non-overlapping images from each section were captured at ×63 magnification using a Leica SP5 confocal microscope and a 488 nm excitation laser (Leica Microsystem). Thresholding image analysis was performed to determine the storage burden present in each region. During image capture, all laser parameters and calibrations were kept constant. Semiquantitative thresholding image analysis was carried out using ImageJ (NIH).

HeLa cells = assay: Autophagic flux in HeLa cells (LAMP1, p62, LC3 markers); format: cell-based, human; conditions: time course
Procedure: FIG. 14. Akt phosphorylates TFEB at Ser467. […] Dashed boxes (upper row) show the location of the higher power inserts (lower row). (b) Subcellular fractionation of HeLa/TFEB cells incubated with the same kinase inhibitors. (c) Multi-alignment of TFEB amino-acid sequences from the following species: Ac, Anolis carolensis; Bt, Bos taurus; Dr, Danio rerio; Fc, Felix catus; Gg, gallus gallus; Hs, Homo sapiens; La, Loxodonta africana; Mm, Mus musculus; Rn, Rattus Norvegicus; Sh, Sarcophilus harrisii; Sp, Strongylocentrotus purpuratus; XI, Xenopus laevis. A consensus logo of Akt phosphorylation sites (generated at weblogo.berkeley.edu/logo.cgi) is aligned with TFEB sequences. Position 467 refers to the human protein sequence. (d) Subcellular localization of TFEB and TFEB(S467A). (e) Expression analysis of lysosomal and autophagy genes in HeLa cells transfected with TFEB or TFEB(S467A). […]
Brain tissue and cultured cells were collected and lysed in RIPA buffer (50 mM Tris-HCl, ph 7.4, 1% NP40, 0.5% Na-deoxycholate, 0.1% SDS, 150 mM NaCl, 2 mM EDTA and 50 mM NaF) including a cocktail of protease (Roche) and phosphatase (SIGMA) inhibitors. Protein concentrations were measured with the bicinchoninic acid protein assay kit (Pierce, Rockford, Ill.), using bovine serum albumin as standard. […] Western blot images were acquired by LAS 4000 (GE Healthcare) and quantified using ImageJ. […]

Q: For `OC[C@H]1O[C@H](O[C@H]2O[C@H](CO)[C@@H](O)[C@H](O)[C@H]2O)[C@H](O)[C@@H](O)[C@@H]1O` [trehalose, a-D-glucopyranosyl a-D-glucopyranoside], which LAMP1 levels (LAMP1) is on record?
A: increased LAMP1 levels

Q: What about the “oral amount that may cause diarrhea and bloating” value ([1]; oral) of the same compound?
A: 40-50 grams per day

Q: And the safety and toxicity ([1]; orally and intravenously, doses substantially higher than the intended therapeutic dose)?
A: found to be safe

Q: And the “punctate autofluorescent storage material” value (Cln3^Δex7-8 mice)?
A: significantly reduced

Q: And the autophagic flux (HeLa cells)?
A: increasing autophagic flux

— US10512656B2, “Compositions and methods for the treatment of lysosomal storage disorders and disorders characterized by lysosomal dysfunction” (Baylor College of Medicine, priority 2016, dated 2019)
